Test results published in ChEMBL document CHEMBL4346705, “(±)-trans-Dihydronarciclasine and (±)-trans-dihydrolycoricidine analogues modified in their ring A: Evaluation of their anticancer activity and a SAR study” (2019).

Experiments:
Assay type in all cases: functional
CCRF-CEM = test: Cytotoxicity against human CCRF-CEM cells assessed as growth inhibition after 48 hrs by sulforhodamine B assay
MOLT-4 = test: Cytotoxicity against human MOLT4 cells assessed as growth inhibition after 48 hrs by sulforhodamine B assay; conditions: MOLT-4, 48 h; for CC50: read-out: LC50 (the source's name)
RPMI-8226 = test: Cytotoxicity against human RPMI8226 cells assessed as growth inhibition after 48 hrs by sulforhodamine B assay; conditions: RPMI-8226, 48 h
A549 = test: Cytotoxicity against human A549 cells assessed as growth inhibition after 48 hrs by sulforhodamine B assay; conditions: A549, 48 h; for CC50: read-out: LC50 (the source's name)
EKVX = test: Cytotoxicity against human EKVX cells assessed as growth inhibition after 48 hrs by sulforhodamine B assay; conditions: for CC50: read-out: LC50 (the source's name)
HOP-92 = test: Cytotoxicity against human HOP92 cells assessed as growth inhibition after 48 hrs by sulforhodamine B assay; conditions: HOP-92, 48 h
NCI-H226 = test: Cytotoxicity against human NCI-H226 cells assessed as growth inhibition after 48 hrs by sulforhodamine B assay; conditions: NCI-H226, 48 h
NCI-H522 = test: Cytotoxicity against human NCI-H522 cells assessed as growth inhibition after 48 hrs by sulforhodamine B assay; conditions: NCI-H522, 48 h
HCC 2998 = test: Cytotoxicity against human HCC2998 cells assessed as growth inhibition after 48 hrs by sulforhodamine B assay; conditions: HCC 2998, 48 h
HCT-15 = test: Cytotoxicity against human HCT15 cells assessed as growth inhibition after 48 hrs by sulforhodamine B assay; conditions: HCT-15, 48 h
LOX IMVI = test: Cytotoxicity against human LOXIMVI cells assessed as growth inhibition after 48 hrs by sulforhodamine B assay
Malme-3M = test: Cytotoxicity against human MALME-3M cells assessed as growth inhibition after 48 hrs by sulforhodamine B assay
UACC-62 = test: Cytotoxicity against human UACC62 cells assessed as growth inhibition after 48 hrs by sulforhodamine B assay; conditions: UACC-62, 48 h
IGROV-1 = test: Cytotoxicity against human IGROV1 cells assessed as growth inhibition after 48 hrs by sulforhodamine B assay; conditions: IGROV-1, 48 h
OVCAR-4 = test: Cytotoxicity against human OVCAR4 cells assessed as growth inhibition after 48 hrs by sulforhodamine B assay; conditions: OVCAR-4, 48 h
OVCAR-8 = test: Cytotoxicity against human OVCAR8 cells assessed as growth inhibition after 48 hrs by sulforhodamine B assay; conditions: OVCAR-8, 48 h
NCI/ADR-RES = test: Cytotoxicity against human NCI-ADR-RES cells assessed as growth inhibition after 48 hrs by sulforhodamine B assay; conditions: for CC50: read-out: LC50 (the source's name)
786-0 = test: Cytotoxicity against human 786-0 cells assessed as growth inhibition after 48 hrs by sulforhodamine B assay; conditions: 786-0, 48 h
ACHN = test: Cytotoxicity against human ACHN cells assessed as growth inhibition after 48 hrs by sulforhodamine B assay
RXF 393 = test: Cytotoxicity against human RXF393 cells assessed as growth inhibition after 48 hrs by sulforhodamine B assay; conditions: RXF 393, 48 h
DU-145 = test: Cytotoxicity against human DU145 cells assessed as growth inhibition after 48 hrs by sulforhodamine B assay; conditions: DU-145, 48 h
MCF7 = test: Cytotoxicity against human MCF7 cells assessed as growth inhibition after 48 hrs by sulforhodamine B assay; conditions: MCF7, 48 h
MDA-MB-468 = test: Cytotoxicity against human MDA-MB-468 cells assessed as growth inhibition after 48 hrs by sulforhodamine B assay; conditions: MDA-MB-468, 48 h; for CC50: read-out: LC50 (the source's name)
SNB-75 = test: Cytotoxicity against human SNB75 cells assessed as growth inhibition after 48 hrs by sulforhodamine B assay; conditions: SNB-75, 48 h

SMILES: O=C1NC2C(CC(O)C(O)C2O)c2cc3c(c(O)c21)OCCO3 (racemic)
- GI50 (CCRF-CEM): 0.0737 µM
- LC50 (concentration giving 50% net cell kill) (CCRF-CEM): > 100 µM
- TGI (CCRF-CEM): 1.83 µM
- GI50 (MOLT-4): 0.179 µM
- TGI (MOLT-4): 10.1 µM
- CC50 (MOLT-4): > 100 µM
- GI50 (RPMI-8226): 0.265 µM
- LC50 (RPMI-8226): > 100 µM
- TGI (RPMI-8226): 1.14 µM
- GI50 (A549): 0.355 µM
- TGI (A549): 8.53 µM
- CC50 (A549): > 100 µM
- GI50 (EKVX): 0.257 µM
- TGI (EKVX): 1.27 µM
- CC50 (EKVX): > 100 µM
- GI50 (HOP-92): 0.11 µM
- LC50 (HOP-92): > 100 µM
- TGI (HOP-92): 1.01 µM
- GI50 (NCI-H226): 0.22 µM
- LC50 (NCI-H226): 79.8 µM
- TGI (NCI-H226): 0.73 µM
- GI50 (NCI-H522): 0.147 µM
- LC50 (NCI-H522): 7.62 µM
- TGI (NCI-H522): 0.73 µM
- GI50 (HCC 2998): 0.222 µM
- LC50 (concentration killing 50% of cells) (HCC 2998): 6.31 µM
- TGI (HCC 2998): 0.73 µM
- GI50 (HCT-15): 0.28 µM
- LC50 (50% lethal concentration) (HCT-15): > 100 µM
- TGI (HCT-15): 1.91 µM
- GI50 (LOX IMVI): 0.18 µM
- LC50 (concentration killing 50% of cells) (LOX IMVI): 3.58 µM
- TGI (LOX IMVI): 0.53 µM
- GI50 (Malme-3M): 0.19 µM
- LC50 (Malme-3M): 5.2 µM
- TGI (Malme-3M): 0.71 µM
- GI50 (UACC-62): 0.261 µM
- LC50 (UACC-62): 13 µM
- TGI (UACC-62): 1.38 µM
- GI50 (IGROV-1): 0.343 µM
- LC50 (IGROV-1): > 100 µM
- TGI (IGROV-1): 2.68 µM
- GI50 (OVCAR-4): 0.209 µM
- LC50 (concentration causing 50% net cell kill) (OVCAR-4): > 100 µM
- TGI (OVCAR-4): 0.82 µM
- GI50 (OVCAR-8): 0.311 µM
- LC50 (OVCAR-8): > 100 µM
- TGI (OVCAR-8): 5.89 µM
- GI50 (NCI/ADR-RES): 0.596 µM
- TGI (NCI/ADR-RES): 5.85 µM
- CC50 (NCI/ADR-RES): > 100 µM
- GI50 (786-0): 0.254 µM
- LC50 (concentration killing 50% of cells) (786-0): > 100 µM
- TGI (786-0): 1.61 µM
- GI50 (ACHN): 0.297 µM
- LC50 (concentration killing 50% of cells) (ACHN): 7.73 µM
- TGI (ACHN): 1.48 µM
- GI50 (RXF 393): 0.179 µM
- LC50 (50% lethal concentration) (RXF 393): 6.3 µM
- TGI (RXF 393): 0.71 µM
- GI50 (DU-145): 0.239 µM
- LC50 (DU-145): > 100 µM
- TGI (DU-145): 0.86 µM
- GI50 (MCF7): 0.103 µM
- LC50 (MCF7): > 100 µM
- TGI (MCF7): 0.59 µM
- GI50 (MDA-MB-468): 0.0681 µM
- TGI (MDA-MB-468): 0.36 µM
- CC50 (MDA-MB-468): 2.78 µM

SMILES: O=C1NC2C(CC(O)C(O)C2O)c2cc3c(c(O)c21)OCO3 (racemic)
- GI50 (CCRF-CEM): 0.0529 µM
- TGI (CCRF-CEM): 2.15 µM
- GI50 (MOLT-4): 0.0636 µM
- CC50 (MOLT-4): > 100 µM
- GI50 (RPMI-8226): 0.229 µM
- TGI (RPMI-8226): 0.63 µM
- GI50 (A549): 0.139 µM
- TGI (A549): 1.16 µM
- CC50 (A549): > 100 µM
- GI50 (EKVX): 0.145 µM
- TGI (EKVX): 1.06 µM
- CC50 (EKVX): > 100 µM
- GI50 (HOP-92): 0.049 µM
- TGI (HOP-92): 0.57 µM
- GI50 (NCI-H226): 0.0617 µM
- TGI (NCI-H226): 0.59 µM
- GI50 (NCI-H522): 0.0467 µM
- TGI (NCI-H522): 0.31 µM
- GI50 (HCC 2998): 0.0572 µM
- TGI (HCC 2998): 0.33 µM
- GI50 (HCT-15): 0.0857 µM
- TGI (HCT-15): 1.11 µM
- GI50 (SNB-75): 0.0754 µM
- TGI (SNB-75): 0.62 µM
- CC50 (SNB-75; read-out: LC50 (the source's name)): 13.2 µM
- GI50 (LOX IMVI): 0.0336 µM
- TGI (LOX IMVI): 0.17 µM
- GI50 (Malme-3M): 0.0859 µM
- TGI (Malme-3M): 0.39 µM
- GI50 (UACC-62): 0.136 µM
- TGI (UACC-62): 0.63 µM
- GI50 (IGROV-1): 0.163 µM
- TGI (IGROV-1): 1.11 µM
- GI50 (OVCAR-4): 0.0556 µM
- TGI (OVCAR-4): 0.48 µM
- GI50 (OVCAR-8): 0.0576 µM
- TGI (OVCAR-8): 1.06 µM
- GI50 (NCI/ADR-RES): 0.178 µM
- TGI (NCI/ADR-RES): 1.56 µM
- CC50 (NCI/ADR-RES): > 100 µM
- GI50 (786-0): 0.151 µM
- TGI (786-0): 1.29 µM
- GI50 (ACHN): 0.0979 µM
- TGI (ACHN): 0.75 µM
- GI50 (RXF 393): 0.118 µM
- TGI (RXF 393): 0.51 µM
- GI50 (DU-145): 0.0567 µM
- TGI (DU-145): 0.62 µM
- GI50 (MCF7): 0.0363 µM
- TGI (MCF7): 1.23 µM
- GI50 (MDA-MB-468): 0.032 µM
- TGI (MDA-MB-468): 0.19 µM
- CC50 (MDA-MB-468): 6.59 µM
